The source of these data is US20160251403A1, “PEPTIDE COMBINATIONS AND USES THEREOF IN TREATING DUST MITE ALLERGY” (ALK-ABELLO A/S, priority 2013, published 2016).

Residue numbers refer to the chain shown, from its start. No end group written: not given here.

Experiment [1] concerns the target DRB1_1501 (Homo sapiens, UniProt P01903+P01911). Put plainly: Competitive MHC class II binding assay, DRB1_1501.
Experiment [2] deals with DRB1_0901 (Homo sapiens, UniProt P01903+P01911, A100R/A103E/D57H/D86V/F55Y/F60I/F76Y/I96F/K127E/L162R/M171V/P40D/Q125H/Q99R/R33Q/R42F/S133A/S66N/T210M/V115G/W38K/Y107V/Y59G/Y89S). Nature of the experiment: Competitive MHC class II binding assay, DRB1_0901.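 Also: displacement of a radiolabeled probe peptide from purified HLA class II protein, bound counts read after two to four days incubation, six concentrations spanning 100,000-fold, unlabeled probe as reference.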
Experiment [3] deals with DRB1_0401 (Homo sapiens, UniProt P01903+P01911, A100K/A169T/F76Y/I96L/K127E/L162R/M171V/N62H/P40V/Q125Y/R42H/S133A/S149N/S66Y/V115G/V209L/W38E). Put plainly: Competitive MHC class II binding assay, DRB1_0401.
Experiment [4] addresses DQA10501-DQB10301 (Homo sapiens, UniProt P01909+P01920). Nature of the experiment: Competitive MHC class II binding assay, DQA10501-DQB10301.
Experiment [5] deals with DRB4_0101 (Homo sapiens, UniProt P01903+P13762, G164S). Put plainly: Competitive MHC class II binding assay, DRB4_0101.
For experiment [6], the target named is DRB1_0701 (Homo sapiens, UniProt P01903+P01911, A100R/A102G/A103Q/D57E/D86V/E43K/F76Y/K127E/L162R/M171V/P40G/Q125H/Q99D/R33Q/R42Y/R54Q/S133A/S66F/T210M/V115G/Y107V/Y59L/Y89S). Put plainly: Competitive MHC class II binding assay, DRB1_0701.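 Also: displacement of a radiolabeled reference peptide from purified HLA class II protein, with complex-bound radioactivity counted after 2–4 days of incubation and six concentrations spanning a 100,000-fold range.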
Experiment [7] has as its target DRB1_0101 (Homo sapiens, UniProt P01903+P01911, A100R/D57E/F55L/F60I/F76Y/I96L/L162R/M171V/P40L/Q125E/R42F/V115G/Y59C). Put plainly: Competitive MHC class II binding assay, DRB1_0101.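 Also: competition against a radiolabeled probe peptide (0.1–1 nM) for purified HLA class II protein over 2–4 days, bound counts read after antibody capture, six competitor levels across 100,000-fold.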
The target in experiment [8] is DRB3_0202 (Homo sapiens, UniProt P01903+P79483, A212P/D57E/F66Y/L67A/R103Q/R218S/R40L/S89Y/T80R/V86D/Y55F/Y59H). Nature of the experiment: Competitive MHC class II binding assay, DRB3_0202.
Experiment [9] concerns the target T1, DPA10202-DPB10501 (Homo sapiens, UniProt P04440+P20036, A42M/A65V/A84E/F191V/F64L/G113D/G114E/K142R/L158P/M116V/M62Q/P115A/Q81R/R125K/T114A/T199I/T259P/V234M).
T1 sequence (P04440 30-258 A65V/A84E/F64L/G113D/G114E/M116V/P115A/R125K/T199I/V234M): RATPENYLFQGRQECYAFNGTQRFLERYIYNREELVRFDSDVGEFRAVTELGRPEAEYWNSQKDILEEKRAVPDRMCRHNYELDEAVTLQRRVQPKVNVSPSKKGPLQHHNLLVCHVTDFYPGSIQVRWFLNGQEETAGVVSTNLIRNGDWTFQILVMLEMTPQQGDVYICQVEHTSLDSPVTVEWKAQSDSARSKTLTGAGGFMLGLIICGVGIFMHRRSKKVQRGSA
T1 sequence (P20036 29-260 A42M/F191V/K142R/L158P/M62Q/Q81R/T114A/T259P): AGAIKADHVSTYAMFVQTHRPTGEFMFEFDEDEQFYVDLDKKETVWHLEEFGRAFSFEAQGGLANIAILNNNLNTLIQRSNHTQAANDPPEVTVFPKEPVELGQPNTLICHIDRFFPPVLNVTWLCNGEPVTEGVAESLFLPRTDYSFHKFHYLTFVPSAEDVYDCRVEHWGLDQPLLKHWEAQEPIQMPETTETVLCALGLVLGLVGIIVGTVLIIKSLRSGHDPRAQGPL
Nature of the experiment: Competitive MHC class II binding assay, DPA10202-DPB10501. Conditions: positive binding at cutoff 1000 nM; read-out: HLA-DPA10202-DPB10501.

Experiment [10] deals with DRB5_0101 (Homo sapiens, UniProt P01903+Q30154). Nature of the experiment: Competitive MHC class II binding assay, DRB5_0101.
Experiment [11] deals with DRB1_1302 (Homo sapiens, UniProt P01903+P01911, A100E/A169T/K41T/L162R/M171V/P40S/Q125H/Q178H/Q39Y/Q99D/R42S/S66N/T262R/V115G/W38E/Y61H). Nature of the experiment: Competitive MHC class II binding assay, DRB1_1302.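 Also: purified HLA class II protein incubated two to four days with a radiolabeled reference binder and test peptide at six concentrations over a 100,000-fold range, complex-bound radioactivity counted.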
In experiment [12] the target is DRB1_0802 (Homo sapiens, UniProt P01903+P01911, A100R/A103L/A169T/F76Y/H45Y/I96F/K41T/L162R/M171V/P40S/Q125H/Q178H/Q39Y/Q99D/R218S/R42G/S66Y/V115G/W38E). Nature of the experiment: Competitive MHC class II binding assay, DRB1_0802.
Experiment [13] has as its target DRB1_0405 (Homo sapiens, UniProt P01903+P01911, A100R/A169T/D86S/F76Y/I96L/K127E/L162R/M171V/N62H/P40V/Q125Y/R42H/S133A/S149N/S66Y/V115G/V209L/W38E). Nature of the experiment: Competitive MHC class II binding assay, DRB1_0405.
In experiment [14] the target is DRB3_0101 (Homo sapiens, UniProt P01903+P79483). Put plainly: Competitive MHC class II binding assay, DRB3_0101.
For experiment [15], the target named is DQA10501-DQB10201 (Homo sapiens, UniProt P01909+P01920, A45G/A70V/D89A/E106A/E77G/E98D/H199R/L107V/N214S/P84L/P87L/T103K/T109R/T172A/T60S/V78E/V99I/Y58L/Y62S/Y69I/Y79F). Nature of the experiment: Competitive MHC class II binding assay, DQA10501-DQB10201.
In experiment [16] the target is DQA10301-DQB10302 (Homo sapiens, UniProt P01909+P01920, A209T/A45G/C70Q/D89A/DUP78-78/E183D/E77G/F237L/G63E/H199R/I129T/K197E/L178F/L74F/L98V/Q57E/Q76R/S185I/S97I/T217I/T49S/V73L/Y58L). Nature of the experiment: Competitive MHC class II binding assay, DQA10301-DQB10302.
Experiment [17] addresses DQA10101-DQB10501 (Homo sapiens, UniProt P01909+P01920, A157S/A45G/A70V/C70R/D89V/E106S/E118A/E183D/E77G/F83G/G63E/H151Q/H199R/H252R/H253Q/I129T/I235V/I88M/INS77G/K197Q/L107V/L117V/L119Y/L178F/L71W/L74F/L85Q/L91A/L98M/M46L/N214S/P87R/Q116E/Q256R/Q57E/Q76K/R102G/R240Q/R75S/R78G/S102Y/S185I/S41F/S97I/T103A/T109R/T121G/T122I/T172A/T86R/V148I/V68A/V73E/Y34C/Y58G/Y62H). Nature of the experiment: Competitive MHC class II binding assay, DQA10101-DQB10501. The settings on record: positive binding at cutoff 1000 nM; read-out: HLA-DQA10101-DQB10501.

Experiment [18] has as its system DQA10401-DQB10402. Put plainly: Competitive MHC class II binding assay, DQA10401-DQB10402.
The target of experiment [19] is T2, DPA10103-DPB10402 (Homo sapiens, UniProt P04440+P20036, A65V/A84D/A85E/L207M).
T2 sequence (P20036 29-260): T1 sequence (P20036 29-260 A42M/F191V/K142R/L158P/M62Q/Q81R/T114A/T259P) with M14A, Q34M, R53Q, A86T, R114K, P130L, V163F, P231T
T2 sequence (P04440 30-258 A65V/A84D/A85E): T1 sequence (P04440 30-258 A65V/A84E/F64L/G113D/G114E/M116V/P115A/R125K/T199I/V234M) with L35F, E55D, A56E, D84G, E85G, A86P, V87M, K96R, I170T, M205V
Nature of the experiment: Competitive MHC class II binding assay, DPA10103-DPB10402.

Experiment [20] concerns the target DQA10102-DQB10602. Put plainly: Competitive MHC class II binding assay, DQA10102-DQB10602. The settings on record: read-out: HLA-DQA10102-DQB10602; positive binding at cutoff 1000 nM.

Regarding “GVLASAIATHAKIR [HDM26B, reference compound]”, the IC50 in experiment [1], in experiment [2], in experiment [3], in [4], in experiment [5] and in experiment [6] was under 1 µM in each case. In addition, the IC50 in experiment [7], in experiment [8], in experiment [9], in experiment [10], in experiment [11] and in experiment [12] was under 1 µM throughout.
NGYGYFAANIDLMM [pep-011]: the IC50 in experiment [13], in [14], in experiment [15], in [16], in [2] and in [3] was under 1 µM each time. The IC50 in experiment [4], in [5], in experiment [6], in experiment [7], in experiment [8] and in [17] was under 1 µM in each case. Also, the IC50 is under 1 µM in [11]; under 1 µM in experiment [18] (read-out: HLA-DQA10401-DQB10402, positive binding at cutoff 1000 nM); under 1 µM in experiment [19]. In addition, the “binding to HLA Class II allele DRB3_0101” value in experiment [14] (as shown in Table 16a) was “binds to at least the same alleles as peptide 041”. The “binding to HLA Class II allele DQA10501-DQB10201” value in experiment [15] (as shown in Table 16a) is recorded as “binds to at least the same alleles as peptide 041”. In addition, the “binding to HLA Class II allele DRB3_0202” value in experiment [8] (as shown in Table 16a) is “binds to at least the same alleles as peptide 041”. The “binding to HLA Class II allele DRB1_1302” value in experiment [11] (as shown in Table 16a) is recorded as “binds to at least the same alleles as peptide 041”. Besides, the “binding to HLA Class II allele DQA10401-DQB10402” value in experiment [18] (as shown in Table 16a) is given as “binds to at least the same alleles as peptide 041”.
As to “NYSQIYPPNVNKIREA [HDM101A, reference compound]”, the IC50 in [1], in [6], in [7], in experiment [8], in experiment [11] and in experiment [19] was under 1 µM in each case.
Take VLASAIATHAKIRD [pep-012]: the IC50 in experiment [14], in experiment [2], in [4], in experiment [6], in experiment [7] and in experiment [9] was under 1 µM throughout. Moreover, the IC50 in experiment [10] was under 1 µM.
Take VMGDDGVLASAIATHAKIRD [pep-099]: the IC50 in experiment [20], in [2], in [3], in experiment [4], in experiment [7] and in experiment [9] was under 1 µM each time. Besides, the IC50 in experiment [10], in experiment [11] and in experiment [12] was under 1 µM throughout.
As for VMGDNGVLASAIATHAKIRD [pep-125], the IC50 in experiment [16], in [2], in experiment [4], in [7], in [9] and in experiment [10] was under 1 µM throughout. In addition, the IC50 in [12] was under 1 µM.
